From US8835617B2, “Polynucleotides encoding a human TRIM-Cyp fusion polypeptide, compositions thereof, and methods of using same” (priority 2008, dated 2014)

Columns and labels:
[1] = system: Jurkat T cells; assay: Growth and cell surface markers of transduced Jurkat T cells; settings: CD4, CXCR4, CD11a, CD18, ICAM3, MHC-I
[2] = system: FIVPET; assay: FIVPET GFP vector challenge of CRFK cells expressing T5 proteins; type: cell-based; settings: in words
Excerpt: Most HIV-1 plasmids and vectors have been described previously (Berthoux et al., 2004). pNL4-3 contains a complete infectious HIV-1 provirus. pNL4-3-R5 bears the V3 loop of the CCR5-tropic 92TH014-2 HIV-1 strain (Papkalla et al., 2002). To generate pNL4-3-GFP-IRES-Nef, enhanced green fluorescent protein (eGFP) and the ECMV (encephalomyocarditis virus) IRES (internal ribosome entry site) were inserted upstream of nef pNLΔenvGFP is pNL4-3 with an env-inactivating mutation and eGFP in place of nef. […] For biochemistry, hT5Cyps were cloned into the p3xFLAG-CMV-7.1 expression vector (Sigma) and HIV-1 CA was expressed as a GST-fusion using the EF1α promoter.
2×10^4 adherent cells/well or 8×10^4 suspension cells/well were plated in 48-well plates (Nunc) for challenge with single-cycle GFP reporter vectors that were titered as indicated. GFP synthesis was assessed by flow cytometry 48 hrs post-infection. […] For infection of 10^6 primary CD4^+ T cells or macrophages, 15 ng p24/10^6 cells of a CXCR4- or CCR5-tropic HIV-1NL4-3 stock was used, and infection was monitored by assessing the accumulation of RT activity in the supernatant (Sayah et al., 2004). FACSCalibur, Cellquest Pro (Becton Dickinson), and FlowJo software (Treestar, Inc.) were used to record and analyze fluorescence. […]

[3] = system: HIV-1
Protocol: Since the objective was to engineer a fully human HIV-1 restriction factor, hCypA was the fused at 10 different positions along the length of hT5α (FIG. 44A).
2×10^4 adherent cells/well or 8×10^4 suspension cells/well were plated in 48-well plates (Nunc) for challenge with single-cycle GFP reporter vectors that were titered as indicated. GFP synthesis was assessed by flow cytometry 48 hrs post-infection. For spreading infection, 10^6 Jurkat cells were infected with 1 to 15 ng p24/10^6 cells of HIV-1NL4-3-GFP-IRES-Nef. Cells were split every 3 days, fixed in 0.5% paraformaldehyde/PBS, and assayed for GFP synthesis by flow cytometry. For infection of 10^6 primary CD4^+ T cells or macrophages, 15 ng p24/10^6 cells of a CXCR4- or CCR5-tropic HIV-1NL4-3 stock was used, and infection was monitored by assessing the accumulation of RT activity in the supernatant (Sayah et al., 2004). FACSCalibur, Cellquest Pro (Becton Dickinson), and FlowJo software (Treestar, Inc.) were used to record and analyze fluorescence. 1-5×10^5 events were acquired for analysis. […]
2×10^4 adherent cells/well or 8×10^4 suspension cells/well were plated in 48-well plates (Nunc) for challenge with single-cycle GFP reporter vectors that were titered as indicated. GFP synthesis was assessed by flow cytometry 48 hrs post-infection. […]

Row | Substance | growth kinetics and cell surface marker levels vs control vector [1] | restriction of FIVPET [2] | HIV-1 restriction activity ([3]; in words, Jurkat T cells (b397 also THP-1 monocytes)) | magnitude of restriction with CypA knockdown ([3]; CypA KD vs Luc KD Jurkat T cells)
1 | hT5Cyp: human TRIM5α fused at serine 322 to human cyclophilin A, SEQ ID NO:12 | grew with the same kinetics and expressed similar levels | blocked comparably | activity comparable to AoT5Cyp | –
2 | AoT5Cyp: Aotus (owl monkey) TRIM5-cyclophilin A fusion protein [reference compound] | grew with the same kinetics and expressed similar levels | blocked comparably | – | Equivalent results
